The record followed here is ChEMBL document CHEMBL1126693, “Long-chain-substituted uric acid and 5,6-diaminouracil derivatives as novel agents against free radical processes: synthesis and in vitro activity” (J Med Chem, 1993).

The source made the active and inactive calls. The rule behind the calls is not given here.

The term IC50 denotes the midpoint of a concentration-inhibition curve. By inhibition is commonly meant the drop in the measured response relative to a control, in per cent. Broadly, the logP is a log measure of how a compound divides between an organic and an aqueous phase.

The species entered for series [1] is Bos taurus. The experiment in a line: Antioxidant activity in bovine heart mitochondria using iron(II) / dihydroxy fumaric acid (DHF). Type of series: functional.
The nature of series [2]: Inhibition against peroxidation of liposomal suspension of dilinoleoylphosphatidylcholine (DPLC) indicated by DMVN at 40 degree Centigrade.
Series [3] can be described thus: Percent inhibition at 100 uM against peroxidation of methyl linoleate / DMVN in TBA /methanol medium at 40 degree Centigrade.
The nature of series [4]: Reducing activity to scavenge 10 uM 1, 1-diphenylpicrylhydrazyl (DPPH). Type of series: functional.
The species entered for series [5] is Bos taurus. The series can be described thus: Tested for antioxidant activity using bovine heart mitochondria and iron(II) / dihydroxy fumaric acid (DHF) at 100 uM. Type of series: functional.
Series [6] can be described thus: Inhibition time for 20 uM during peroxidation of liposomal suspension of dilinoleoylphosphatidylcholine (DPLC) indicated by DMVN at 40 degree centigrade; inactive.
A short description of series [7]: Inhibition time for 20 uM during peroxidation of methyl linoleate / DMVN in TBA /methanol medium at 40 degree centigrade; inactive.
Series [8] is described as follows: Reducing activity to scavenge 10 uM 1, 1-diphenylpicrylhydrazyl (DPPH); inactive. Type of series: functional. Background: The DPPH test is a chemical assay of radical scavenging.
Series [9] can be described thus: Percent inhibition at 100 uM against peroxidation of liposomal suspension of dilinoleoylphosphatidylcholine (DPLC) indicated by DMVN at 40 degree Centigrade.
Series [10] can be described thus: Inhibition time for 20 uM during peroxidation of liposomal suspension of dilinoleoylphosphatidylcholine (DPLC) indicated by DMVN at 40 degree Centigrade.
Series [11] can be described thus: Inhibition time for 20 uM during peroxidation of methyl linoleate / DMVN in TBA /methanol medium at 40 degree Centigrade.
Series [12] can be described thus: Partition coefficient (logP). It counts as physicochemical. To be noted: octanol/water.
For series [13], the species on record is Bos taurus. The series can be described thus: Tested for antioxidant activity using bovine heart mitochondria and iron(II) / dihydroxy fumaric acid (DHF). It counts as functional.

For the compound `CCCCCCCCCCCCCCCCn1c(O)nc2c(=O)[nH]c(=O)[nH]c21`, the figures for the IC50 (in the series listed under Bos taurus [1]; in [2]) were 750 nM and 8000 nM, respectively. The same compound displayed an inhibition in series [3] of 10%. Moreover, the RC10 in series [4] was found to be 4.5 µM.
The compound `CCCCCCCCCCCCNc1cc(O)nc(O)n1` came in with an inhibition in the series listed under Bos taurus [5] of 2%. For the same compound, the T inh result in series [6] and in series [7] was “inactive” throughout. For the same compound, in [8], the RC10 entry was “inactive”.
For `CCCCCCCCCCCCn1c(=O)n(C)c(=O)c2c1n(C)c(=O)n2C`, the inhibition in the series filed under Bos taurus [5] was determined as 5%; in series [9] it was 0.5%; in series [3], 0.7%. For the same compound, the RC10 result in series [8] is “inactive”.
Consider `CCCCCCCCCCCCn1c(=O)cc(N)[nH]c1=O`, for which the inhibition in the series listed under Bos taurus [5] is 1%.
As for `CCCCCCCCCCCCCCCCCCNc1[nH]c(=O)n(C)c(=O)c1N`, 22000 nM corresponded to half-maximal inhibition in the series listed under Bos taurus [1] (IC50). Moreover, the T inh is 1750 s in series [10] and 114 s in [11]. The same compound yielded an RC10 in series [4] of 6.2 µM.
The like results for `CCCCCCCCCCCCCCCCNc1nc(O)nc(O)c1N` were, in that order, 900 nM, 2020 s, 150 s and 6.4 µM.
As to `CCCCCCCCn1c(=O)[nH]c(=O)c2[nH]c(O)nc21`, the logP in series [12] came to 1.1. For the same compound, the IC50 was found to be 28000 nM in the series filed under Bos taurus [1] and 37000 nM in [2]. Besides, the inhibition in series [3] was determined as 15%. Moreover, in [4], the RC10 amounted to 6.5 µM.
`Cn1c(N)c(N)c(=O)[nH]c1=O`: in series [12], the logP is -1.4. The compound also gave an IC50 in the series filed under Bos taurus [1] of 82000 nM. Besides, the results for the T inh in series [10] and in series [11] were 800 s and 156 s, respectively. In series [4], this compound displayed an RC10 of 4.5 µM.
`CCCCCCn1c(=O)[nH]c(=O)c2[nH]c(O)nc21` registered a logP in [12] of -0.02. The inhibition in the series listed under Bos taurus [5] stood at 26%. This compound also showed an RC10 in series [4] of 4.5 µM.
Take `CCCCCCCCCCCCn1c(N)c(N)c(=O)n(C)c1=O`: it took 240 nM to reach half-maximal inhibition in the series listed under Bos taurus [1] (IC50). For the same compound, the T inh in [10] amounted to 3150 s; in series [11], 126 s. Further, the RC10 in series [4] worked out at 5 µM.
`CCCCCCCCCCCCn1c(N)c(N)c(=O)[nH]c1=O`: the IC50 in the series filed under Bos taurus [1] worked out at 270 nM. In addition, the values for the T inh in series [10] and in series [11] were 3350 s and 102 s, respectively. This compound displayed an RC10 in [4] of 7 µM.
As for `Cn1c(O)nc2[nH]c(=O)[nH]c(=O)c21`, in the series listed under Bos taurus [5], the inhibition stood at 20%. The same compound displayed an RC10 in series [4] of 20 µM.
`Cn1c(=O)[nH]c(=O)c2c1[nH]c(=O)n2C` displayed an inhibition in the series filed under Bos taurus [5] of 5%. Besides, in [8], the RC10 entry was “inactive”.
The compound `Cn1c(=O)[nH]c2[nH]c(=O)n(C)c2c1=O` gave an inhibition in the series listed under Bos taurus [5] of 14%. Besides, the RC10 in [4] came out at 14 µM.
On to `Cc1c(C)c2c(c(C)c1O)CC[C@@](C)(CCC[C@H](C)CCC[C@H](C)CCCC(C)C)O2`, for which, in the series filed under Bos taurus [5], the inhibition was 46%. For the same compound, the T inh result in [6] was “inactive”. The compound further displayed a T inh in series [11] of 190 s. The RC10 in [4] stood at 6 µM.
Turning to `O=c1[nH]c(=O)c2[nH]c(=O)[nH]c2[nH]1` [URIC ACID], the logP in [12] is -2.91.
On to `Nc1[nH]c(=O)[nH]c(=O)c1N`, for which the logP in [12] is -1.92. In the series filed under Bos taurus [1], this compound displayed an IC50 of 100000 nM. The RC10 in [4] amounted to 7 µM.
`CCCCCCn1c(N)c(N)c(=O)[nH]c1=O` displayed a logP in series [12] of 1.01. The compound also showed an IC50 in the series filed under Bos taurus [13] of 3500 nM. The T inh in series [10] was 2010 s; in series [11], 105 s. Also, the RC10 in series [4] was found to be 6.5 µM.
As for `CCCCCCCCCCCCNc1c(N)nc(O)nc1O`, inhibition in the series listed under Bos taurus [1] was half-maximal at 570 nM (IC50). The T inh in [10] is 6000 s; in series [11], 84 s. The compound also returned an RC10 in series [4] of 4.5 µM.
As for `CCCCCCCCCCCCNc1c(N)n(Cc2ccccc2)c(=O)[nH]c1=O`, in the series listed under Bos taurus [1], half-maximal inhibition (IC50) required 670 nM. In series [4], this compound yielded an RC10 of 6.5 µM.
Regarding `CCCCCCCCCCCCn1c(=O)[nH]c2[nH]c(O)nc2c1=O`, the values for the IC50 (in the series filed under Bos taurus [1]; in [2]) were 1250 nM and 10000 nM, respectively. Further, the inhibition in series [3] came to 25%. In series [4], this compound returned an RC10 of 5.2 µM.
Take `Cn1c(=O)[nH]c2c(=O)[nH]c(=O)[nH]c21`: the inhibition in the series filed under Bos taurus [5] is 9%. The same compound came in with an RC10 in series [4] of 5 µM.
`CCCCCCCCCCCCNc1nc(O)nc(O)c1N` yielded a half-inhibitory concentration (IC50) in the series listed under Bos taurus [1] of 300 nM. In addition, the T inh in series [10] is 3500 s; in series [11] it was 105 s. The same compound registered an RC10 in [4] of 6.4 µM.
As for `Cc1c(C)c2c(c(C)c1O)CCC(C)(C(=O)O)O2` (centres undefined) [TROLOX], the IC50 in the series filed under Bos taurus [1] is 5000 nM. The T inh worked out at 15000 s in series [10] and 195 s in series [11]. Besides, in series [4], the RC10 stood at 3.7 µM.
With `CCCCCCCCCCCCn1c(O)nc2c(=O)[nH]c(=O)[nH]c21`, the IC50 was 1000 nM in the series filed under Bos taurus [1] and 11000 nM in series [2]. Besides, in series [3], the inhibition turned out to be 13%. Besides, the RC10 in series [4] turned out to be 6.2 µM.
For `CCCCCCCCCCCCn1c(O)nc2[nH]c(=O)[nH]c(=O)c21`, in that order: 1600 nM, 200000 nM, 10% and 27 µM.
In series [12], `CCCCCCCCn1c(N)c(N)c(=O)[nH]c1=O` displayed a logP of 2.05. In the series listed under Bos taurus [1], this compound yielded an IC50 of 620 nM. Further, the T inh in [10] turned out to be 3350 s; in series [11], 114 s. The compound also showed an RC10 in series [4] of 6.5 µM.
Regarding `Cn1c(=O)[nH]c2[nH]c(=O)[nH]c2c1=O`, the inhibition worked out at 10% in the series filed under Bos taurus [5] and 13% in series [3]. The compound further registered an RC10 in [4] of 4.5 µM.
Consider `CCCCCCCCCCCCn1c(=O)n(C)c(=O)c2[nH]c(O)nc21`, for which the IC50 turned out to be 850 nM in the series filed under Bos taurus [1] and 18000 nM in series [2]. In addition, in [3], the inhibition was determined as 15%. The compound further registered an RC10 in [4] of 3 µM.
`Cn1c(=O)c2[nH]c(=O)[nH]c2n(C)c1=O`: the inhibition in the series listed under Bos taurus [5] stood at 36%. In addition, the RC10 in [4] was 3.5 µM.
The compound `CCCCCCCCCCCCn1c(=O)[nH]c(N)c(N)c1=O` displayed an IC50 in the series listed under Bos taurus [1] of 260 nM. Further, the T inh in series [10] is 4200 s; in series [11] it was 144 s. The same compound came in with an RC10 in [4] of 5.5 µM.
As for `CCCCCCCCCCn1c(N)c(N)c(=O)[nH]c1=O`, the logP in [12] was found to be 3.04. In the series listed under Bos taurus [1], this compound displayed an IC50 of 280 nM. Moreover, the T inh in series [10] worked out at 3700 s; in series [11], 114 s. In [4], this compound came in with an RC10 of 5.6 µM.
For the compound `Cn1c(=O)[nH]c(=O)c2[nH]c(O)nc21`, the inhibition in the series listed under Bos taurus [5] turned out to be 11%; in [3] it was 10%. This compound returned an RC10 in [4] of 3.5 µM.
`Oc1nc(O)c2nc(O)[nH]c2n1`: the results for the inhibition (in the series filed under Bos taurus [5]; in series [9]; in series [3]) were 5%, 0.5% and 7%, respectively. The RC10 in [4] was 4.5 µM.
For `CCCCCCCCCCCCn1c(=O)[nH]c(=O)c2[nH]c(O)nc21`, the lipophilicity (logP) in series [12] was 2.9. In the series listed under Bos taurus [1], this compound yielded an IC50 of 1600 nM. The compound also had an RC10 in [4] of 3.2 µM.
Compound `Cn1c(=O)[nH]c(N)c(N)c1=O` displayed an IC50 in the series listed under Bos taurus [1] of 50000 nM. This compound returned an RC10 in series [4] of 6 µM.
`CCCCCCCCCCn1c(=O)[nH]c(=O)c2[nH]c(O)nc21` returned a logP in [12] of 2.04. The IC50 in the series filed under Bos taurus [1] worked out at 3700 nM; in [2], 22000 nM. In [3], this compound returned an inhibition of 8%. Besides, the RC10 in [4] came out at 3.5 µM.
